Drawing on ChEMBL document CHEMBL5385845, “Novel coumarin aminophosphonates as potential multitargeting antibacterial agents against Staphylococcus aureus” (Eur J Med Chem, 2023), this text covers MIC for eight compounds.

What all share (format): functional
For assay [1], the system named is Pseudomonas aeruginosa. As to the kind of experiment: Antibacterial activity against Pseudomonas aeruginosa ATCC 27853 assessed as inhibition of bacterial growth.
Assay [2] deals with Escherichia coli. As to the kind of experiment: Antibacterial activity against Escherichia coli ATCC 25922 assessed as inhibition of bacterial growth.
The test system of assay [3] is Acinetobacter baumannii. As to the kind of experiment: Antibacterial activity against Acinetobacter baumannii assessed as inhibition of bacterial growth.
Assay [4] relates to Escherichia coli. As to the kind of experiment: Antibacterial activity against Escherichia coli assessed as inhibition of bacterial growth.
Assay [5] has as its system Staphylococcus aureus. As to the kind of experiment: Antibacterial activity against methicillin resistant Staphylococcus aureus N315 assessed as inhibition of bacterial growth.
Assay [6] deals with Staphylococcus aureus. As to the kind of experiment: Antibacterial activity against Staphylococcus aureus ATCC 25923 assessed as inhibition of bacterial growth.
The test system of assay [7] is Enterococcus faecalis. As to the kind of experiment: Antibacterial activity against Enterococcus faecalis assessed as inhibition of bacterial growth.
Assay [8] relates to Klebsiella pneumoniae. As to the kind of experiment: Antibacterial activity against Klebsiella pneumoniae assessed as inhibition of bacterial growth.
Assay [9] concerns Pseudomonas aeruginosa. As to the kind of experiment: Antibacterial activity against Pseudomonas aeruginosa assessed as inhibition of bacterial growth.
Assay [10] deals with Staphylococcus aureus. As to the kind of experiment: Antibacterial activity against Staphylococcus aureus ATCC 29213 assessed as inhibition of bacterial growth.
Assay [11] relates to Staphylococcus aureus. As to the kind of experiment: Antibacterial activity against Staphylococcus aureus assessed as inhibition of bacterial growth.

≈ marks a conversion by molar mass, not a printed value.

Turning to `CCOP(=O)(OCC)C(Nc1ccc2c(C)cc(=O)oc2c1)c1ccc(C#N)cc1` (stereo not drawn), the MIC in assay [1] came to 128 µg/mL (≈ 300 µM); in assay [2], 128 µg/mL (≈ 300 µM); in assay [3], 128 µg/mL (≈ 300 µM); in [4], 128 µg/mL (≈ 300 µM); in assay [5] it was 128 µg/mL (≈ 300 µM); in [6] it was 256 µg/mL (≈ 600 µM). Besides, the MIC in assay [7] was 64 µg/mL (≈ 150 µM); in [8], 128 µg/mL (≈ 300 µM); in assay [9], 64 µg/mL (≈ 150 µM); in assay [10], 64 µg/mL (≈ 150 µM); in assay [11], 128 µg/mL (≈ 300 µM).

For the compound `CCOP(=O)(OCC)C(Nc1ccc2c(C)cc(=O)oc2c1)c1ccc(Cl)cc1` (stereo not drawn), the MIC in assay [1] came to 8 µg/mL (≈ 18.4 µM); in [2], 4 µg/mL (≈ 9.18 µM); in assay [3], 64 µg/mL (≈ 147 µM); in [4], 128 µg/mL (≈ 294 µM); in assay [5] it was 128 µg/mL (≈ 294 µM); in assay [6], 4 µg/mL (≈ 9.18 µM). In addition, the MIC stood at 64 µg/mL (≈ 147 µM) in [7]; 64 µg/mL (≈ 147 µM) in assay [8]; 16 µg/mL (≈ 36.7 µM) in assay [9]; 128 µg/mL (≈ 294 µM) in assay [10]; 256 µg/mL (≈ 587 µM) in [11].

In the case of `CCOP(=O)(OCC)C(Nc1ccc2c(C)cc(=O)oc2c1)c1ccc(C(=O)O)cc1` (stereo not drawn), the MIC in assay [1] came to 64 µg/mL (≈ 144 µM); in [2], 256 µg/mL (≈ 575 µM); in assay [3] it was 128 µg/mL (≈ 287 µM); in assay [4], 32 µg/mL (≈ 71.8 µM); in assay [5], 256 µg/mL (≈ 575 µM); in assay [6] it was 128 µg/mL (≈ 287 µM). In addition, the MIC turned out to be 128 µg/mL (≈ 287 µM) in [7]; 64 µg/mL (≈ 144 µM) in assay [8]; 16 µg/mL (≈ 35.9 µM) in assay [9]; 64 µg/mL (≈ 144 µM) in [10]; 64 µg/mL (≈ 144 µM) in assay [11].

For the compound `CCOP(=O)(OCC)C(Nc1cc2ccccc2oc1=O)c1cccc(O)c1` (stereo not drawn), the MIC in assay [1] came out at 4 µg/mL (≈ 9.92 µM); in [2], 32 µg/mL (≈ 79.3 µM); in assay [3], 16 µg/mL (≈ 39.7 µM); in [4] it was 64 µg/mL (≈ 159 µM); in assay [5], 32 µg/mL (≈ 79.3 µM); in assay [6], 8 µg/mL (≈ 19.8 µM). Besides, the MIC in [7] was found to be 16 µg/mL (≈ 39.7 µM); in assay [8], 128 µg/mL (≈ 317 µM); in [9] it was 32 µg/mL (≈ 79.3 µM); in assay [10], 32 µg/mL (≈ 79.3 µM); in [11] it was 8 µg/mL (≈ 19.8 µM).

With `CCOP(=O)(OCC)C(Nc1ccc2c(CCl)cc(=O)oc2c1)c1cccc(O)c1` (stereo not drawn), the MIC amounted to 32 µg/mL (≈ 70.8 µM) in assay [1]; 8 µg/mL (≈ 17.7 µM) in assay [2]; 64 µg/mL (≈ 142 µM) in assay [3]; 64 µg/mL (≈ 142 µM) in assay [4]; 64 µg/mL (≈ 142 µM) in [5]; 16 µg/mL (≈ 35.4 µM) in assay [6]. The MIC in assay [7] turned out to be 32 µg/mL (≈ 70.8 µM); in assay [8] it was 128 µg/mL (≈ 283 µM); in assay [9] it was 128 µg/mL (≈ 283 µM); in [10] it was 64 µg/mL (≈ 142 µM); in [11], 16 µg/mL (≈ 35.4 µM).

For `CCOP(=O)(OCC)C(Nc1ccc2c(C(F)(F)F)cc(=O)oc2c1)c1cccc(O)c1` (stereo not drawn), the MIC in assay [1] was 16 µg/mL (≈ 33.9 µM); in assay [2], 16 µg/mL (≈ 33.9 µM); in assay [3], 128 µg/mL (≈ 272 µM); in assay [4] it was 256 µg/mL (≈ 543 µM); in [5], 32 µg/mL (≈ 67.9 µM); in assay [6] it was 8 µg/mL (≈ 17 µM). For the same compound, the MIC in assay [7] was found to be 16 µg/mL (≈ 33.9 µM); in assay [8], 32 µg/mL (≈ 67.9 µM); in [9], 32 µg/mL (≈ 67.9 µM); in assay [10], 64 µg/mL (≈ 136 µM); in assay [11], 16 µg/mL (≈ 33.9 µM).

Consider `CCOP(=O)(OCC)C(Nc1ccc2c(C)cc(=O)oc2c1)c1ccc(O)c(OC)c1` (stereo not drawn), for which the MIC in assay [1] came out at 64 µg/mL (≈ 143 µM); in assay [2] it was 64 µg/mL (≈ 143 µM); in [3], 128 µg/mL (≈ 286 µM); in [4] it was 128 µg/mL (≈ 286 µM); in assay [5], 128 µg/mL (≈ 286 µM); in assay [6], 64 µg/mL (≈ 143 µM). Moreover, the MIC in assay [7] was determined as 16 µg/mL (≈ 35.8 µM); in assay [8] it was 256 µg/mL (≈ 572 µM); in assay [9] it was 256 µg/mL (≈ 572 µM); in [10], 128 µg/mL (≈ 286 µM); in assay [11] it was 64 µg/mL (≈ 143 µM).

Consider `CCCCc1nc(Cl)c(C(Nc2ccc3c(C)cc(=O)oc3c2)P(=O)(OCC)OCC)n1CO` (stereo not drawn), for which the MIC stood at 32 µg/mL (≈ 62.5 µM) in assay [1]; 16 µg/mL (≈ 31.3 µM) in [2]; 64 µg/mL (≈ 125 µM) in assay [3]; 128 µg/mL (≈ 250 µM) in [4]; 2 µg/mL (≈ 3.91 µM) in assay [5]; 16 µg/mL (≈ 31.3 µM) in assay [6]. Further, the minimal inhibitory concentration (MIC) in [7] is 128 µg/mL (≈ 250 µM); in [8] it was 16 µg/mL (≈ 31.3 µM); in [9], 256 µg/mL (≈ 500 µM); in assay [10], 128 µg/mL (≈ 250 µM); in [11], 2 µg/mL (≈ 3.91 µM).

In general, MIC refers to the least concentration at which growth counts as inhibited.
